Data as given in patent publication US9402875B2, “Amidated dopamine neuron stimulating peptide restoration of mitochondrial activity” (University of Kentucky Research Foundation, priority 2006, dated 2016).
Ends that are not written are not given here.

What was measured:
B65 cells = assay: Caspase-3 activity assay, mitochondrial toxins; format: cell-based
Procedure: MN9D cells and B65 cells were cultured in Dulbecco's Modified Eagle's Medium (DMEM; 11995 (containing pyridoxol HCl); Sigma, St. Louis, Mo.) supplemented with 10% fetal bovine serum (HyClone, Logan, Utah), 50 U/mL penicillin and streptomycin. For each assay the cells were treated with mitochondrial-specific environmental toxins, i.e., MPP+, rotenone, and/or TaClo, and with or without DNSP-11. After incubation with the toxins, the cells were plated on 24-well poly-D-lysine plates (50,000 cells/well) for TUNEL assay (as described below) or 100,000 cell/well for caspase-3 assay in DMEM medium with 1% (v/v) penicillin-streptomycin only (as described below).
B65 cells were plated on 24-well poly-D-lysine plates in DMEM and 50u/ml penicillin and streptomycin. Cells incubated in either 50 nM, 100 nM, or 250 nM rotenone or 10 μM, […] or 50 μM TaClo for 1 to 12 hours at 37° C. in 5% CO2, following pretreatment (1 to 30 minutes) with or without 10 nM or 100 nM DNSP-11. The cells were then lysed and protein level measured by BCA assay (BioRad). The protein level were normalized for every experiment. The Enz Chek Caspase-3 Kit (Invitrogen) was used to detect caspase-3 activity and fluorescence was read on fluorescence reader (excitation/emission 496/520 nm). Data are expressed as % of control and were repeated a minimum of three times.

MN9D dopaminergic cells = assay: TUNEL assay, protection against 6-OHDA toxicity; format: cell-based; settings: 1 ng/mL for 1 hour before 100 μM 6-OHDA for 15 min; at 24 h
Procedure: MN9D Cell Cultures: The MN9D cell line has been described by Choi (1991) Brain Res. 552:67-76 and was a gift from Michael Zigmond. Cells were cultured in DMEM supplemented with 10% Fetal Bovine Serum (FBS, Hyclone), 50 U/mL penicillin and streptomycin. For experiments, the cells were plated on 24-well poly-D-lysine in DMEM with 1% (v/v) penicillin-streptomycin. The cells were grown at 37° C. in 5% CO2.
Terminal dUTP Nick-End Labeling (TUNEL) Assay in MN9D Cells: After treatment with DNSP-11, MN9D cells were fixed and labelled to assess degenerative nuclear changes as indicated by the extent of high-molecular weight DNA strand breaks. DNA fragmentation was detected by using steptavidin-horseradish peroxidise conjugate followed by the substrate diaminobenzidine (DAB) generating a colored precipitate. Ratios between apoptotic and total cells were determined (4 random fields/well; 4 wells/ group). Experiments were repeated 3 times.
To evaluate DNSP-11's neuroprotective properties, DNSP-11 was compared to GDNF in its protection against 6-OHDA-induced toxicity in the dopaminergic cell line, MN9D. MN9D dopaminergic cells were incubated for 1 hour with either citrate buffer (control), 1 ng/mL of DNSP-11 or GDNF prior to 100 μM 6-OHDA exposure for 15 min. […]

## PPEAPAEDRSL-NH2 [DNSP-11, PPEAPAEDRSL-amide]
B65 cells; no toxin
  caspase-3 activity, DNSP-11 alone: no significant effect
B65 cells; rotenone or TaClo 1 to 12 hours, pretreatment with 10 nM or 100 nM DNSP-11
  caspase-3 activity, protection from toxins: significant protection
MN9D dopaminergic cells
  percent of TUNEL positive cells: significant reduction
